Activity calls are given as the source filed them. No cut-off for these calls is given here.
Key:
MCF7 = experiment: Cytotoxicity against human MCF7 cells
HT-1080 [1] = experiment: Induction of morphological changes in human HT-1080 cells assessed as appearance of round shaped mitochondria by TEM analysis; type: functional, cell-based
[2] = Acute toxicity in BALB/c mouse implanted with human HT-1080 cells assessed as heart damage at 15 to 30 mg/kg, ip administered for 7 days by H and E staining based analysis; type: organism-based; conditions: in vivo, 168 h, dose 15-30 mg/kg, time 7 day
HT-1080 [3] = experiment: Cytotoxicity against human HT-1080 cells assessed as cell viability incubated for 24 hrs by CCK-8 assay; conditions: HT-1080, 24 h
HT-1080 [4] = experiment: Cytotoxicity against human HT-1080 cells in presence of Z-VAD-FMK
[5] = Half life in male Sprague-Dawley rat at 20 mg/kg, po measured upto 36 hrs by LC-MS/MS analysis; type: ADME, organism-based; conditions: in vivo
HT-1080 [6] = experiment: Induction of ferroptosis in human HT-1080 cells assessed as increase in cellular LPO level at 0.1 uM incubated for 3 hrs by BIODPY-C11 probe based flow cytometry analysis; type: functional, cell-based
[7] = Cytotoxicity against human LO2 cells; type: toxicity, cell-based, L02
HepG2 = experiment: Cytotoxicity against human HepG2 cells
HT-1080 [8] = experiment: Induction of morphological changes in human HT-1080 cells assessed as […] of mitochondria cristas by TEM analysis; type: functional, cell-based
[9] = Acute toxicity in BALB/c mouse implanted with human HT-1080 cells assessed as liver damage at 15 to 30 mg/kg, ip administered for 7 days by H and E staining based analysis; type: organism-based; conditions: in vivo, 168 h, dose 15-30 mg/kg, time 7 day
HT-1080 [10] = experiment: Induction of ferroptosis in human HT-1080 cells assessed as reduction in cell viability incubated for 24 hrs in presence of Fer-1 by CCK-8 assay; conditions: HT-1080, 24 h
[11] = Oral bioavailability in male Sprague-Dawley rat at 20 mg/kg measured upto 36 hrs by LC-MS/MS analysis; type: ADME, organism-based; conditions: in vivo
[12] = Toxicity in BALB/c mouse implanted with human HT-1080 cells assessed as change in body weight at 15 to 30 mg/kg, ip administered for 6 days and measured after 2 weeks; type: organism-based; conditions: in vivo, 480 h, dose 15-30 mg/kg, time 20 day
[13] = Cmax in male Sprague-Dawley rat at 2 mg/kg, iv measured upto 36 hrs by LC-MS/MS analysis; type: ADME, organism-based; conditions: in vivo
4T1 = experiment: Cytotoxicity against mouse 4T1 cells
[14] = Acute toxicity in BALB/c mouse implanted with human HT-1080 cells assessed as change in CREA level at 15 to 30 mg/kg, ip administered for 7 days; type: organism-based; conditions: in vivo, 168 h, dose 15-30 mg/kg, time 7 day
CAL-27 = experiment: Cytotoxicity against human CAL-27 cells
[15] = Acute toxicity in BALB/c mouse implanted with human HT-1080 cells assessed as lung damage at 15 to 30 mg/kg, ip administered for 7 days by H and E staining based analysis; type: organism-based; conditions: in vivo, 168 h, dose 15-30 mg/kg, time 7 day
HT-1080 [16] = experiment: Induction of ferroptosis in human HT-1080 cells assessed as increase in cellular ROS level at 0.1 uM incubated for 3 hrs by DCFH-DA staining based flow cytometry analysis; type: functional, cell-based
[17] = Half life in male Sprague-Dawley rat at 2 mg/kg, iv measured upto 36 hrs by LC-MS/MS analysis; type: ADME, organism-based; conditions: in vivo
[18] = Acute toxicity in BALB/c mouse implanted with human HT-1080 cells assessed as spleen damage at 15 to 30 mg/kg, ip administered for 7 days by H and E staining based analysis; type: organism-based; conditions: in vivo, 168 h, dose 15-30 mg/kg, time 7 day
[19] = Cmax in male Sprague-Dawley rat at 20 mg/kg, po measured upto 36 hrs by LC-MS/MS analysis; type: ADME, organism-based; conditions: in vivo
[20] = Acute toxicity in BALB/c mouse implanted with human HT-1080 cells assessed as change in UREA level at 15 to 30 mg/kg, ip administered for 7 days; type: organism-based; conditions: in vivo, 168 h, dose 15-30 mg/kg, time 7 day
HT-1080 [21] = experiment: Antitumor activity against human HT-1080 cells xenografted in BALB/c mouse assessed as tumor growth inhibition at 30 mg/kg, ip administered for 6 days and measured after 2 weeks; type: functional; conditions: HT-1080, 480 h, time 20 day, read-out: TGI
[22] = Acute toxicity in BALB/c mouse implanted with human HT-1080 cells assessed as kidney damage at 15 to 30 mg/kg, ip administered for 7 days by H and E staining based analysis; type: organism-based; conditions: in vivo, 168 h, dose 15-30 mg/kg, time 7 day
[23] = Clearance in male Sprague-Dawley rat at 2 mg/kg, iv measured upto 36 hrs by LC-MS/MS analysis; type: ADME, organism-based; conditions: in vivo
[24] = AUC (0 to t) in male Sprague-Dawley rat at 20 mg/kg, po measured upto 36 hrs by LC-MS/MS analysis; type: ADME, organism-based; conditions: in vivo
[25] = Acute toxicity in BALB/c mouse implanted with human HT-1080 cells assessed as change in ALT level at 15 to 30 mg/kg, ip administered for 7 days; type: organism-based; conditions: in vivo, 168 h, dose 15-30 mg/kg, time 7 day
[26] = AUC (0 to t) in male Sprague-Dawley rat at 2 mg/kg, iv measured upto 36 hrs by LC-MS/MS analysis; type: ADME, organism-based; conditions: in vivo
HT-1080 [27] = experiment: Induction of ferroptosis in human HT-1080 cells assessed as increase in cellular MDA level at 0.1 uM incubated for 6 hrs in presence of Fer-1; type: functional, cell-based
HT-1080 [28] = experiment: Induction of ferroptosis in human HT-1080 cells assessed as increase in cellular MDA level at 0.1 uM incubated for 6 hrs; type: functional, cell-based
[29] = Clearance in male Sprague-Dawley rat at 20 mg/kg, po measured upto 36 hrs by LC-MS/MS analysis; type: ADME, organism-based; conditions: in vivo
[30] = Acute toxicity in BALB/c mouse implanted with human HT-1080 cells assessed as change in ALP level at 15 to 30 mg/kg, ip administered for 7 days; type: organism-based; conditions: in vivo, 168 h, dose 15-30 mg/kg, time 7 day
[31] = Acute toxicity in BALB/c mouse implanted with human HT-1080 cells assessed as change in AST level at 15 to 30 mg/kg, ip administered for 7 days; type: organism-based; conditions: in vivo, 168 h, dose 15-30 mg/kg, time 7 day
HT-1080 [32] = experiment: Cytotoxicity against human HT-1080 cells assessed as cell survival incubated for 24 hrs by CCK-8 assay; conditions: HT-1080, 24 h
HT-1080 [33] = experiment: Antitumor activity against human HT-1080 cells xenografted in BALB/c mouse assessed as reduction in tumor weight at 15 to 30 mg/kg, ip administered for 6 days and measured after 2 weeks; type: functional, organism-based; conditions: dose 15-30 mg/kg, time 20.0 day
HT-1080 [34] = experiment: Cytotoxicity against human HT-1080 cells assessed as cell survival incubated for 24 hrs in presence of DFO by CCK-8 assay; conditions: HT-1080, 24 h
HT-1080 [35] = experiment: Antitumor activity against human HT-1080 cells xenografted in BALB/c mouse assessed as tumor growth inhibition at 15 mg/kg, ip administered for 6 days and measured after 2 weeks; type: functional; conditions: HT-1080, 480 h, time 20 day, read-out: TGI

## C#Cc1nc(C(=O)N(c2ccc(-c3cnco3)cc2)[C@@H](C(=O)NC(C)(C)C)c2csc3ccccc23)cs1
MCF7
  IC50: 451 nM
HT-1080 [1]
  Activity: Active
[2]
  Activity: Non-toxic
HT-1080 [3]
  IC50: 3 nM
HT-1080 [4]
  IC50: 0.2 nM
[5]
  half-life: 2.37 h
HT-1080 [6]
  Activity: Active
[7]
  IC50: 5140 nM
HepG2
  IC50: 56 nM
HT-1080 [8]
  Activity: Active
[9]
  Activity: Non-toxic
HT-1080 [10]
  IC50: 7480 nM
[11]
  bioavailability: 6.67%
[12]
  Activity: Non-toxic
[13]
  Cmax: 271 ng/mL
4T1
  IC50: 89 nM
[14]
  Activity: Non-toxic
CAL-27
  IC50: 2680 nM
[15]
  Activity: Non-toxic
HT-1080 [16]
  Activity: Active
[17]
  half-life: 1.05 h
[18]
  Activity: Non-toxic
[19]
  Cmax: 20.8 ng/mL
[20]
  Activity: Non-toxic
HT-1080 [21]
  inhibition in vivo at 30 mg/kg: 49.4%
[22]
  Activity: Non-toxic
[23]
  clearance: 282 mL/min/kg
[24]
  AUC(0-t) at 36 h: 79.4 ng·h/mL
[25]
  Activity: Non-toxic
[26]
  AUC(0-t) at 36 h: 122 ng·h/mL
HT-1080 [27]
  Activity: Weak_effect
HT-1080 [28]
  Activity: Active
[29]
  CL/F: 5670 mL/min/kg
[30]
  Activity: Non-toxic
[31]
  Activity: Non-toxic
HT-1080 [32]
  IC50: 22 nM
HT-1080 [33]
  Activity: Active
HT-1080 [34]
  IC50: 3950 nM
HT-1080 [35]
  inhibition in vivo at 15 mg/kg: 36.5%
